Measured values from ChEMBL document CHEMBL1155067, “Carbonic anhydrase inhibitors: thioxolone versus sulfonamides for obtaining isozyme-selective inhibitors?” (Bioorg Med Chem Lett, 2008).
pIC50: −log10 of the molar value.

Columns and labels:
[1] = biological target: Carbonic anhydrase 5B, mitochondrial (Homo sapiens) (UniProt Q9Y2D0)
Description: Inhibition of human recombinant carbonic anhydrase 5B by stopped flow CO2 hydration method

[2] = biological target: Carbonic anhydrase 5A, mitochondrial (Homo sapiens) (UniProt P35218)
Description: Inhibition of human recombinant carbonic anhydrase 5A by stopped flow CO2 hydration method

[3] = biological target: T1, Carbonic anhydrase 15 (Mus musculus) (UniProt Q99N23); experiment: Inhibition of mouse recombinant carbonic anhydrase 15 by stopped flow CO2 hydration method
T1 sequence (whole entry): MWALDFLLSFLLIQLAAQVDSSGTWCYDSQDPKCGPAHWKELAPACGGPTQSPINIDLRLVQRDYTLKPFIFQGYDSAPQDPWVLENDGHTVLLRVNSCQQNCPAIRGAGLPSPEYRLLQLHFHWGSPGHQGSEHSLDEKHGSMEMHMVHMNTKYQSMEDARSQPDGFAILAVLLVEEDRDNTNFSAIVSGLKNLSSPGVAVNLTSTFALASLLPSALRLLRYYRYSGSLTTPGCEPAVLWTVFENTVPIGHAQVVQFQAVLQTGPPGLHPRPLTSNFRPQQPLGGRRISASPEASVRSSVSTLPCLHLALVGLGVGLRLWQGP

[4] = biological target: Carbonic anhydrase 3 (Homo sapiens) (UniProt P07451)
Description: Inhibition of human recombinant carbonic anhydrase 3 by stopped flow CO2 hydration method

[5] = biological target: Carbonic anhydrase 1 (Homo sapiens) (UniProt P00915)
[6] = biological target: Carbonic anhydrase 4 (Homo sapiens) (UniProt P22748)
Description: Inhibition of human recombinant carbonic anhydrase 4 by stopped flow CO2 hydration method

[7] = biological target: T2, Carbonic anhydrase 2 (Homo sapiens, UniProt P00918); experiment: Inhibition of human recombinant carbonic anhydrase 2 by oxygen-18 isotope exchange assay
[8] = biological target: T2, Carbonic anhydrase 2; experiment: Inhibition of human recombinant carbonic anhydrase 2 assessed as activity of carbonic anhydrase 2 esterase activity against 4-nitrophenyl acetate
[9] = biological target: T2, Carbonic anhydrase 2
[10] = biological target: Carbonic anhydrase 7 (Homo sapiens) (UniProt P43166)
[11] = biological target: Carbonic anhydrase 13 (Mus musculus) (UniProt Q9D6N1); experiment: Inhibition of mouse recombinant carbonic anhydrase 13 by stopped flow CO2 hydration method
[12] = biological target: Carbonic anhydrase 12 (Homo sapiens) (UniProt O43570)
Description: Inhibition of human recombinant carbonic anhydrase 12 catalytic domain by stopped flow CO2 hydration method

[13] = biological target: Carbonic anhydrase 6 (Homo sapiens) (UniProt P23280)
Description: Inhibition of human recombinant carbonic anhydrase 6 by stopped flow CO2 hydration method

[14] = biological target: Carbonic anhydrase 9 (Homo sapiens) (UniProt Q16790)
Description: Inhibition of human recombinant carbonic anhydrase 9 catalytic domain by stopped flow CO2 hydration method

[15] = biological target: Carbonic anhydrase 14 (Homo sapiens) (UniProt Q9ULX7)
Chain of Carbonic anhydrase 14 (Homo sapiens) (Q9ULX7 whole entry): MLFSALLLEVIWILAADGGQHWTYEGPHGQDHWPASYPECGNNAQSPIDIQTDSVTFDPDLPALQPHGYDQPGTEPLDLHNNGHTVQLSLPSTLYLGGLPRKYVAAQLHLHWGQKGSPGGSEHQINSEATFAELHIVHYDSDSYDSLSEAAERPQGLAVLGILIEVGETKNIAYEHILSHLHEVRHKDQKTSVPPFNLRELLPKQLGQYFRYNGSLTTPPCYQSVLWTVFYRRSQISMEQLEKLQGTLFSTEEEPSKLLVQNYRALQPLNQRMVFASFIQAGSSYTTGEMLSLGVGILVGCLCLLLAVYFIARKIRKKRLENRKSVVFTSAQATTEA
Description: Inhibition of human recombinant carbonic anhydrase 14 by stopped flow CO2 hydration method

Chain of Carbonic anhydrase 6 (Homo sapiens) (P23280 whole entry): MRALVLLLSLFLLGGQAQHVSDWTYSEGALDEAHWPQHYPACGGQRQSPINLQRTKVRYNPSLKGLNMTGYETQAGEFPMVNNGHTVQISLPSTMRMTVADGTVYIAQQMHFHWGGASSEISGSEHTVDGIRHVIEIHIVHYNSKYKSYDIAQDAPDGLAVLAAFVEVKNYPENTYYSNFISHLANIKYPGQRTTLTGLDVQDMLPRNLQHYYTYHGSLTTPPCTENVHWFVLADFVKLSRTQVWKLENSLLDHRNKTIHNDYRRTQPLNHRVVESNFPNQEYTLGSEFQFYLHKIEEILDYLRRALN
Chain of Carbonic anhydrase 4 (Homo sapiens) (P22748 whole entry): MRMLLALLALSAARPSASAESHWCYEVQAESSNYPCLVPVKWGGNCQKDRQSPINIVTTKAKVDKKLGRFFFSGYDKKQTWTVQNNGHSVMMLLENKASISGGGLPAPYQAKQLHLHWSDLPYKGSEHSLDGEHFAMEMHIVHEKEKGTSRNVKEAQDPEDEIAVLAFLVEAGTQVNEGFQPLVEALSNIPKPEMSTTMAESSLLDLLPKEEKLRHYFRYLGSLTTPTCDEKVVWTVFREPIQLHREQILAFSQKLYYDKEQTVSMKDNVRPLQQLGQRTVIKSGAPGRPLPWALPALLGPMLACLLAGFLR
Chain of Carbonic anhydrase 12 (Homo sapiens) (O43570 whole entry): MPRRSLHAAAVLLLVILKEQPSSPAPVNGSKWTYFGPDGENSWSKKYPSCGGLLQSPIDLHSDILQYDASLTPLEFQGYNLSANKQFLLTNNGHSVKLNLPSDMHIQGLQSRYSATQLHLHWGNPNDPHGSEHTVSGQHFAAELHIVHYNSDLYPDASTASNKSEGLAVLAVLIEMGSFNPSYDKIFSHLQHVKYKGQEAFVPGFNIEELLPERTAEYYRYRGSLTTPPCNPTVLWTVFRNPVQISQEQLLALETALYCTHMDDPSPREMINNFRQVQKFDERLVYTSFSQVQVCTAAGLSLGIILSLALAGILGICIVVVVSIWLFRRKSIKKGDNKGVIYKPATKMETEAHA
Chain of Carbonic anhydrase 1 (Homo sapiens) (P00915 2-261 limits assumed): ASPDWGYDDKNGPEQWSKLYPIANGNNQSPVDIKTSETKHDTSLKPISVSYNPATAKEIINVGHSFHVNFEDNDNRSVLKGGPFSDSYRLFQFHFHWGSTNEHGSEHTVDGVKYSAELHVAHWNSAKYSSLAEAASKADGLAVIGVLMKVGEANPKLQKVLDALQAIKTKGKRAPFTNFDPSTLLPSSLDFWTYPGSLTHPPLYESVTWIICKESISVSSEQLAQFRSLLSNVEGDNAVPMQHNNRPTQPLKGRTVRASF
Chain of Carbonic anhydrase 13 (Mus musculus) (Q9D6N1 whole entry, looked up): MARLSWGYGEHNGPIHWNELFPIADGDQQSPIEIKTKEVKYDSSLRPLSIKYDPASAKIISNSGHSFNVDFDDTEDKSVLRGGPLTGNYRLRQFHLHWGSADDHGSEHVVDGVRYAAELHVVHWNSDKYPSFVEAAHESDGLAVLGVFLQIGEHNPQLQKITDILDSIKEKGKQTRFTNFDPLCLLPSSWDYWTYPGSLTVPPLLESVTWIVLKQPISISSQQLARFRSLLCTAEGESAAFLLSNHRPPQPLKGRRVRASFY
Chain of Carbonic anhydrase 5A, mitochondrial (Homo sapiens) (P35218 whole entry): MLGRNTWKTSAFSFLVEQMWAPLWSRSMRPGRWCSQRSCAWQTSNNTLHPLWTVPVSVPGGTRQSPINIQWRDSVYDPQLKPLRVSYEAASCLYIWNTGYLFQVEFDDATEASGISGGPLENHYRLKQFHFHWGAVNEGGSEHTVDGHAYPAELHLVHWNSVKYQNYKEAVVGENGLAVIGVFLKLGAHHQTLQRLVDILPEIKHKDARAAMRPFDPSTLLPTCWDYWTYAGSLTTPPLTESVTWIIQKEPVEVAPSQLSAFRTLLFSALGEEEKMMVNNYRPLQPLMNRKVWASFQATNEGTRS
Chain of Carbonic anhydrase 3 (Homo sapiens) (P07451 whole entry): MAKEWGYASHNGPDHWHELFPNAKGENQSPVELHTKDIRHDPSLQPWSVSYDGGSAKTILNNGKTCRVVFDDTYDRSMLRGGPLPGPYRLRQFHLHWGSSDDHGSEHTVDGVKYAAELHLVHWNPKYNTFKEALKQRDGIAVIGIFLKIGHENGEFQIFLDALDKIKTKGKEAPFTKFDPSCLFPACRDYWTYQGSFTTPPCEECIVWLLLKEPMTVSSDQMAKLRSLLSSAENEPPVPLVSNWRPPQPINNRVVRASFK
Chain of Carbonic anhydrase 5B, mitochondrial (Homo sapiens) (Q9Y2D0 whole entry): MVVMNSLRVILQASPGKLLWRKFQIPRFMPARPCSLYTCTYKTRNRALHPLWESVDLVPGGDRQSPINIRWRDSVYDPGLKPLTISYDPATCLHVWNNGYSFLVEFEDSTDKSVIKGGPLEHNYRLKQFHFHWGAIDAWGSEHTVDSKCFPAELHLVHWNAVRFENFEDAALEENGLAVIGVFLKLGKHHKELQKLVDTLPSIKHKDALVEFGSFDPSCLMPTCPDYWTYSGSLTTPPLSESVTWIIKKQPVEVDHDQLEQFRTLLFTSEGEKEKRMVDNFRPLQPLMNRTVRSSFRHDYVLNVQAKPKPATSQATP
Chain of Carbonic anhydrase 7 (Homo sapiens) (P43166 whole entry): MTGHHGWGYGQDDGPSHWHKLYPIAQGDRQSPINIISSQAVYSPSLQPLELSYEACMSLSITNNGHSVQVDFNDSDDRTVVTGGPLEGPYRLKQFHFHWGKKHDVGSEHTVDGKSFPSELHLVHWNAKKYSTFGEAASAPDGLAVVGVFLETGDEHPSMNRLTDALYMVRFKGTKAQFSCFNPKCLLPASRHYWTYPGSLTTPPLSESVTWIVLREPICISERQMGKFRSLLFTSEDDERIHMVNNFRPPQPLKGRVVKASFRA

| Kinact [1] [µM] | Ki [2] [nM] | Ki [3] [nM] | Kinact [4] [µM] | Kinact [5] [µM] | Kinact [6] [µM] | Kinact [7] [µM] | pIC50 [8] | Kinact [9] [µM] | Kinact [10] [µM] | Kinact [11] [µM] | Kinact [12] [µM] | Kinact [13] [µM] | Kinact [14] [µM] | Kinact [15] [µM] | SMILES |
| --- | --- | --- | --- | --- | --- | --- | --- | --- | --- | --- | --- | --- | --- | --- | --- |
| 9.04 | 7060 | 7870 | 6.56 | 0.091 | 8.41 | 314 | 5.75 | 6.82 | 5.73 | 8.23 | 7.79 | 4.93 | 6.67 | 8.59 | O=c1oc2cc(O)ccc2s1 [TIOXOLONE] |
| 0.61 | 620 | 780 | 78.6 | 7.5 | 0.072 | – | – | 0.058 | 0.072 | 6.53 | 0.076 | 6.17 | 0.081 | 8.12 | NS(=O)(=O)c1cc(Cl)c(O)c(Cl)c1 |
